Reference: patent US6197959A, “Piperidine derivatives” (Hoffmann-La Roche Inc., priority 1999, dated 2001)

Target: T1, human renin (Homo sapiens, UniProt P00797)
T1 sequence (P00797 67-406): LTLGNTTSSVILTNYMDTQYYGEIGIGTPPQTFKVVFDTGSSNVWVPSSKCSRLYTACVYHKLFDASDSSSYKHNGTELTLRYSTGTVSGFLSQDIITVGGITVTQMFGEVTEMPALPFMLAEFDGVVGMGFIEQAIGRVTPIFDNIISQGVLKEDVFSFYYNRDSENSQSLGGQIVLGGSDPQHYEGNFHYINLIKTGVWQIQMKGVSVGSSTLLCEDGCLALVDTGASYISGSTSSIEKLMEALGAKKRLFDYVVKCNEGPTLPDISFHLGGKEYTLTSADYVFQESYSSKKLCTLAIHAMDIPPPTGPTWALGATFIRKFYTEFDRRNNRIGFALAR
Experiment: In vitro Test With Pure Human Renin
Assay type: biochemical
Settings: human tetradecapeptide substrate, pH 7.4, 3 h at 37° C., angiotensin I by RIA
Description: The tests can be carried out in analogy to those described by D. T. Pals et al. in Hypertension Vol. 8, 1105-1112 (1986) or J. Boger et al. in J. Med. Chem. 28, 1779-1790 (1985) or […] et al. in J. Med. Chem. 30, 2137-2144 (1987) or T. Kokubu et al. in Biochem. Biophys. Res. Commun. 118, 929-993 (1984): In vitro Test With Pure Human Renin The test is carried out in Eppendorf test tubes. The incubation mixture consists of (1) 100 μl of human renin in buffer A (0.1 M sodium phosphate solution, pH 7.4, containing 0.1% bovine serum albumin, 0.1% sodium aside and 1 mM ethylenediaminetetraacetic acid), sufficient for a renin activity of 2-3 ng of angiotensin I/ml/hr.; (2) 145 μl of buffer A: (3) 30 μl of 10 mM human tetradecapeptide renin substrate (hTD) in 10 mM hydrochloric acid: (4) 15 μl of dimethyl sulphoxide with or without inhibitor and (5) 10 μl of a 0.03 molar solution of hydroxyquinoline sulphate in water. The samples are incubated for three hours at 37° C. and, respectively, 4° C. in triplicate. 2×100 μl samples per test tube are used in order to measure the production of angiotensin I via RIA (standard radioimmunoassay; clinical assay solid phase kit). Cross reactivities of the antibody used in the RIA are: angiotensin I 100%; angiotensin II 0.0013%; hTD (angiotensin […]-OH) 0.09%. The production of angiotensin I is determined by the difference between the test at 37° C. and that at 4° C. The following controls are carried out: (a) Incubation of hTD samples without renin and without inhibitor at 37° C. and 4° C. The difference between these two values gives the base value of the angiotensin I production. (b) Incubation of hTD samples with renin, but without inhibitor at 37° C. and 4° C. The difference between these values gives the maximum value of the angiotensin I production. In each sample the base value of the angiotensin I production is subtracted from the angiotensin I production which is determined. […] The IC50 values are determined from a linear regression curve from a logit-log plot.

SMILES | IC50
COC(=O)CCN1CCCc2ccc(COC3CNCC[C@@H]3c3ccc(OCCCOCc4ccccc4OC)cc3)cc21 (mixture of isomers) [E, (3RS,4R)-3-[7-(4-[4-[3-(2-methoxy-benzyloxy)-propoxy]-phenyl]-piperidin-3-yloxymethyl)-3,4-dihydro-2H-quinolin-1-yl]-propionic acid methyl ester] | 0.04 nM
COc1ccccc1COCCCOc1ccc([C@H]2CCNC[C@@H]2OCc2ccc3c(c2)N(CCNC(C)=O)CCC3)cc1 [A, (3R,4R)-N-[2-[7-[4-[4-[3-(2-methoxy-benzyloxy)-propoxy]-phenyl]-piperidin-3-yloxymethyl]-3,4-dihydro-2H-quinolin-1-yl]-ethyl]-acetamide] | 0.05 nM
CCOC(=O)CN1CCCc2ccc(CO[C@H]3CNCC[C@@H]3c3ccc(OCCCOCc4ccccc4OC)cc3)cc21 [B, (3R,4R)-[7-(4-[4-[3-(2-methoxy-benzyloxy)-propoxy]-phenyl]-piperidin-3-yloxymethyl)-3,4-dihydro-2H-quinolin-1-yl]-acetic acid ethyl ester] | 0.05 nM
COc1ccccc1COCCCOc1ccc([C@H]2CCNC[C@@H]2OCc2ccc3c(c2)N(CCCO)CCC3)cc1 [C, (3R,4R)-3-[7-[4-[4-[3-(2-methoxy-benzyloxy)-propoxy]-phenyl]-piperidin-3-yloxymethyl]-3,4-dihydro-2H-quinolin-1-yl]-propan-1-ol] | 0.08 nM
COc1ccccc1COCCCOc1ccc([C@H]2CCNC[C@@H]2OCc2ccc3c(c2)N(CCNS(N)(=O)=O)CCC3)cc1 [Compound I, (3R,4R)-N-[2-[7-[4-[4-[3-(2-methoxy-benzyloxy)-propoxy]-phenyl]-piperidin-3-yloxymethyl]-3,4-dihydro-2H-quinolin-1-yl]-ethyl]-sulfamide] | 0.06 nM
COC(=O)CN1CCCc2ccc(CO[C@H]3CNCC[C@@H]3c3ccc(OCCCOCc4ccccc4OC)cc3)cc21 [D, (3R,4R)-[7-(4-[4-[3-(2-methoxy-benzyloxy)-propoxy]-phenyl]-piperidin-3-yloxymethyl)-3,4-dihydro-2H-quinolin-1-yl]-acetic acid methyl ester] | 0.02 nM

Now from value to compound:

IC50 | SMILES
0.05 nM | COCCCN1CCCc2ccc(CO[C@H]3CNCC[C@@H]3c3ccc(OCCCOCc4ccccc4OC)cc3)cc21 [F, (3R,4R)-7-[4-[4-[3-(2-methoxy-benzyloxy)-propoxy]-phenyl]-piperidin-3-yloxymethyl)-1-(3-methoxy-propyl]-1,2,3,4-tetrahydro-quinoline]
0.07 nM | COc1ccccc1COCCCOc1ccc([C@H]2CCNC[C@@H]2OCc2ccc3c(c2)N(CC#N)CCC3)cc1 [G, (3R,4R)-[7-(4-[4-[3-(2-methoxy-benzyloxy)-propoxy]-phenyl]-piperidin-3-yloxymethyl)-3,4-dihydro-2H-quinolin-1-yl]-acetonitrile]
0.07 nM | COc1ccccc1COCCCOc1ccc([C@H]2CCNC[C@@H]2OCc2ccc3c(c2)N(CCNS(C)(=O)=O)CCC3)cc1 [H, (3R,4R)-N-[2-[7-[4-[4-[3-(2-methoxy-benzyloxy)-propoxy]-phenyl]-piperidin-3-yloxymethyl]-3,4-dihydro-2H-quinolin-1-yl]-ethyl]-methanesulfonamide]
0.09 nM | COc1ccccc1COCCCOc1ccc([C@H]2CCNC[C@@H]2OCc2ccc3c(c2)N(CCNC(N)=O)CCC3)cc1 [J]
0.05 nM | COc1ccccc1COCCCOc1ccc([C@H]2CCNC[C@@H]2OCc2ccc3c(c2)N(CCNC(=O)C(F)(F)F)CCC3)cc1 [K, (3R,4R)-2,2,2-trifluoro-N-[2-[7-[4-[4-[3-(2-methoxy-benzyloxy)-propoxy]-phenyl]-piperidin-3-yloxymethyl]-3,4-dihydro-2H-quinolin-1-yl]-ethyl]-acetamide]
